{
  "source": "paper PMC10541198",
  "about": "“Specific quinone reductase 2 inhibitors reduce metabolic burden and reverse Alzheimer’s disease phenotype in mice” (The Journal of Clinical Investigation, 2023)",
  "test_system": "HCT116 cells",
  "assay": "H2DCFDA detection of cellular ROS",
  "assay_type": "cell-based, human",
  "conditions": "20 μM, 3 hour, WT HCT116",
  "experimental": "To establish direct target engagement and cell membrane permeability, a cellular thermal shift assay (CETSA) was carried out, using leading QR2is YB’s-537, 800, and 808. Following a 1 hour preincubation with 5 μM of the QR2is or vehicle, thermal aggregation curves (Taggs) of QR2 expressed in HEK293T were measured in increasing temperatures. All QR2is increased QR2 thermal stability compared with vehicle (Supplemental Figure 2A). Based on the Tagg curves we selected 73°C for isothermal dose-response fingerprint (IDTRF) experiments (Supplemental Figure 2B). The ITDRF allowed the relative quantification of the binding of each of the QR2is to QR2, measured as the EC50 (Figure 3A). […] We evaluated the safety of the QR2is using cell toxicity and viability assays. […] Cell viability was assessed by XTT assay in HEK239T cells, using a dose response, with 3- or 24-hour incubations of the leading QR2is. […] We then assessed WT HCT116 cells by immunoblot (Supplemental Figure 2, C and D), after being treated with YB-800 (2 μM) for 4 consecutive days. […]\nThe cells wer e har ves t ed a nd resuspended in 1% cl ear m e di um ( DM EM – with no phenol red, suppl em ent ed with 1% FBS, 1% L-Glutamine and 1% Penicillin-Streptomycin). […] The plate wa s then incubated in the dark at 37°C f or 3 h, before reading in a Tecan M200 Pro florescence microplate reader, using wavelengths Ex/Em = 485 nm / 535 nm . […]",
  "note": "Values joined by “and” are separate entries in the source; they are usually repeats but may differ in a detail not shown here. Identical values can stand only once.",
  "data": [
    {"smiles": "Cc1ccc(-c2cn3cccc(C)c3n2)cc1S(=O)(=O)N1CCC(C)CC1", "note": "[YB-800]", "values": [
      {"measurement": "ROS levels (replicates)", "value": "0.005141 and -0.1557 and -0.2104 and -0.08593 and -0.04485"}
    ]}
  ]
}
